Assay results as given in patent US7417122B2, “Mammalian galanin receptors” (Schering Corporation, priority 1997, dated 2008).
Non-standard residues stand in square brackets, D forms with d. Residues, ends and D or L forms follow the SMILES beside them.

Target: T1, rat GalR3 receptor (Rattus norvegicus, UniProt O88626)
T1 construct: expressed in transfected cells; host or cells: COS-7 cells (ATCC CRL 1651), transient electroporation with pCR 3.1; membrane preparation
T1 sequence (O88626 1-370 P53Q/R54G/T57Q/P127Q/R137C/A150G/W176L/A183R/T188A/F210L/C272I/R311C): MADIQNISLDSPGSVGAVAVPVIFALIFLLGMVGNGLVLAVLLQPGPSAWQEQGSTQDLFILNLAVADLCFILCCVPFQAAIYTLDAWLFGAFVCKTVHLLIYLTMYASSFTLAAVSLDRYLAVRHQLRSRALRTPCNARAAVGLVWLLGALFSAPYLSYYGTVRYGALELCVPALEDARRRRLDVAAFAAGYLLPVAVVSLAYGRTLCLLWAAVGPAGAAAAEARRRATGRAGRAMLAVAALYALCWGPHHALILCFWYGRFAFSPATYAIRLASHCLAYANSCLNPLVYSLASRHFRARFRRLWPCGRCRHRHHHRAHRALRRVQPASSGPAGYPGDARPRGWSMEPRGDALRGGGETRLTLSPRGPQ
Assay: 125I-porcine galanin competition binding to membranes of COS-7 cells transfected with rat GalR3 receptor
Details: FIG. 2, 125I-porcine galanin binding to rat GalR3 membranes
Procedure: Transfection was carried out as follows. Confluent COS-7 cells (ATCC CRL 1651) grown in DMEVI supplemented with 10% fetal calfserum (FCS) with 100 units/ml penicillin and 100 μg/ml streptomycin were split 1:6 into 150 mm dishes (Nunc) three days prior to transfection. On the day of transfection, the cells were approximately 90% confluent and trypsinized off plates and washed two times with PBS without Mg^++ and Ca^++. The cells were resuspended in Krebs Ringer's buffer at a density of approximately 1.2×10^7 cells/ml. […]
To each plate, 5 ml of 5 mM Hepes buffer (pH 7.4), 0.1 mM PMSF, and 0.1 mg/ml bacitracin were added and incubated at room temperature for 15 minutes. […] Protein concentrations were determined using a […] (bicinchoninic acid) method (Pierce, Rockford, Ill.).
Binding of ^125I-porcine-galanin to the membrane preparations was performed in a buffer containing 25 mM Tris-Cl (pH7.4), 1% bovine serim albumin (w/v), 0.1% bacitracin, 2 μg/ml leupeptin and 10 mM MgCl2. […] All data were analyzed using non-linear regression software (Prism, GraphPad, San Diego, Calif.), and the Ki was calculated using the method of Cheng and Prusoff [Biochem. Pharmacol. 22:3099-3108 (1973)].

SMILES | competitive inhibition of the labeled galanin
CC(C)C[C@H](NC(=O)[C@H](CC(C)C)NC(=O)[C@@H](Cc1c[nH]c2ccccc12)NC(=O)[C@H](Cc1ccccc1)NC(=O)[C@@H](Cc1c[nH]c2ccccc12)NC(=O)[C@H](CCC(N)=O)NC(=O)[C@H](CCC(N)=O)NC(=O)[C@@H]1CCCN1C(=O)[C@H](CCCCN)NC(=O)[C@@H]1CCCN1C(=O)[C@@H](CCCNC(=N)N)NC(=O)[C@@H]1CCCN1C(=O)CNC(=O)[C@H](CC(C)C)NC(=O)[C@H](CC(C)C)NC(=O)[C@H](Cc1ccc(O)cc1)NC(=O)CNC(=O)[C@H](C)NC(=O)[C@H](CO)NC(=O)[C@H](CC(N)=O)NC(=O)[C@H](CC(C)C)NC(=O)[C@@H](NC(=O)[C@H](Cc1c[nH]c2ccccc12)NC(=O)CN)[C@@H](C)O)C(N)=O [chimeric galanin peptide C7] (H-GWTLNSAGYLLGP[dR]PKPQQ[dW]F[dW]LL-NH2; N-terminus and C-terminus assumed) | competitive inhibitors
CC[C@H](C)[C@H](NC(=O)[C@H](C)NC(=O)[C@H](Cc1c[nH]cn1)NC(=O)[C@@H]1CCCN1C(=O)CNC(=O)[C@H](CC(C)C)NC(=O)[C@H](CC(C)C)NC(=O)[C@H](Cc1ccc(O)cc1)NC(=O)CNC(=O)[C@H](C)NC(=O)[C@H](CO)NC(=O)[C@H](CC(N)=O)NC(=O)[C@H](CC(C)C)NC(=O)[C@@H](NC(=O)[C@@H](N)Cc1c[nH]c2ccccc12)[C@@H](C)O)C(=O)N[C@@H](CC(=O)O)C(=O)N[C@@H](CC(N)=O)C(=O)N[C@@H](Cc1c[nH]cn1)C(=O)N[C@@H](CCCNC(=N)N)C(=O)N[C@@H](CO)C(=O)N[C@@H](Cc1ccccc1)C(=O)N[C@@H](CO)C(=O)N[C@@H](CC(=O)O)C(=O)N[C@@H](CCCCN)C(=O)N[C@@H](Cc1c[nH]cn1)C(=O)NCC(=O)N[C@@H](CC(C)C)C(=O)N[C@H](C(N)=O)[C@@H](C)O [galanin(2-29)] | competitive inhibitors
